# From PMC7725506, “Functional Diversification of SRSF Protein Kinase to Control Ubiquitin-Dependent Neurodevelopmental Signaling” (Developmental Cell, 2020)
# Assays:
# [1] = test system: RNF12 SR-motif; assay: RNF12 SR-motif phosphorylation in mESCs by phos-tag immunoblotting; type: cell-based, mouse; conditions: 4 h
# Excerpt: RNF12 4xSA = S212A/S214A/S227A/S229A. (B) Rlim^−^/y mESCs were transfected with the indicated RNF12 constructs and lysates treated with λ-phosphatase and analyzed by phos-tag immunoblotting for RNF12. Unphosphorylated recombinant RNF12 is included as a control. […] RNF12 4xSA is included as an unphosphorylated control. […] (F) Phosphorylated peptides detected by mass spectrometry following in vitro phosphorylation of RNF12 by SRPK1. pS, phospho-serine. (G) Autoradiography of RNF12 WT or S212A/S214A/S227A/S229A (4xSA) following a radioactive kinase reaction with SRPK1, SRPK2, or SRPK3. RNF12 protein is detected by Coomassie staining. (H) Srpk1^+/+ and Srpk1^−/− mESCs were transfected with control or SRPK2 siRNA and RNF12 SR-motif phosphorylation analyzed by phos-tag immunoblotting for RNF12. SRPK2, SRPK1, RNF12, and ERK1/2 levels were determined by immunoblotting. Related to Figure S2; Tables S3 and S4.
# All compounds were diluted in DMSO and mESCs treated with 10 μM inhibitor for 4 h prior lysis unless indicated otherwise. […] For proteasome inhibition mESCs were treated with 10 μM MG132 (Sigma Aldrich) for 6 h. All chemicals are listed in the Key Resource Table.
# Phos-tag analyses were performed by loading protein samples containing 10 mM MnCl2 in 8% polyacrylamide gels containing 50 μM Phos-tag reagent (MRC-PPU reagents and services) and 0.1 mM MnCl2. After electrophoresis, gels were washed three times for 10 mins in Transfer buffer (48 mM Tris, 39 mM Glycine, 20% Methanol) supplemented with 20 mM EDTA. Proteins were then transferred to Nitrocellulose membranes, blocked and probed with the indicated antibodies. All protein signals were quantified using Image Studio (LI-COR Biosciences) or Image Lab software (Bio-Rad). Primary antibodies are listed in the Key Resource Table. […]
# SR-motif phosphorylation of HA-immunoprecipitated RNF12 analysed by phos-tag immunoblotting.
# HA-RNF12 levels are shown as a control. Fully phosphorylated (4-P) and unphosphorylated (0-P) RNF12 SR-motif is indicated by open (○) and closed (●) circles respectively.
# Data are represented as mean ± S.D. (n=3). (C) RNF12 expressing mESCs were treated with 10 […]
# immunoblotting. HA-RNF12 and ERK1/2 levels are shown as a control. (D) RNF12 expressing […]
# 5 h (+ wash-out). RNF12 phosphorylation was analysed via phos-tag immunoblotting. ERK1/2 levels are shown as a loading control. (E) Multiple Srpk1-/- and Srpk2-/- mESC clones were […]
# [2] = molecular target: SRPK1 (Homo sapiens, UniProt Q96SB4); type: biochemical; conditions: in vitro, RNF12 phospho-Ser214 immunoblot quantified; read-out: IC50, inhibition of RNF12 phosphorylation by SRPK1
# Sequence of SRPK1 (Q96SB4 whole entry): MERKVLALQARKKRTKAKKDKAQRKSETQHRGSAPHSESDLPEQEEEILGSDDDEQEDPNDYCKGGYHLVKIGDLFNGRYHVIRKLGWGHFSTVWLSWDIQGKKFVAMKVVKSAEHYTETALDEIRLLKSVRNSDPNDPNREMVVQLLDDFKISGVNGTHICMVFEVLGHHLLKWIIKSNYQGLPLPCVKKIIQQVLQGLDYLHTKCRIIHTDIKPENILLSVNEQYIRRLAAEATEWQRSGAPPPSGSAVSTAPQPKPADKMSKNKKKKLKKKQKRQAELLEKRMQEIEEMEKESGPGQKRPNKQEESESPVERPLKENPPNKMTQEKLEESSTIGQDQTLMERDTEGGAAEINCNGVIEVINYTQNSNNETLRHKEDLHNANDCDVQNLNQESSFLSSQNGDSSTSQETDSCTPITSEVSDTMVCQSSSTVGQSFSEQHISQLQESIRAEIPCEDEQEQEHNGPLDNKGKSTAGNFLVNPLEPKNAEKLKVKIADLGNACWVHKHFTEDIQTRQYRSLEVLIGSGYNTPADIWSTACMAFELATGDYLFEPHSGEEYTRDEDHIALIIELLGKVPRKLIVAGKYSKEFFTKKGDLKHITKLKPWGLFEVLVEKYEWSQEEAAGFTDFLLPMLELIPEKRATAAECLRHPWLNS
# Description: Cells were lysed, and 1.5 mg of protein immunoprecipitated with 2 μg of SRPK1 or SRPK2 antibodies (BD Biosciences). Immunoprecipitates were then washed with lysis buffer supplemented with 500 mM NaCl and half of the sample was resuspended in loading buffer. The remainder was subjected to in vitro phosphorylation assay containing 0.5 μg RNF12 and 2 mM ATP in kinase buffer (50 mM Tris-HCl [pH 7.5], 0.1 mM EGTA, 10 mM MgCl2, 2 mM DTT) and incubated at 30°C for 30 min. […] For radioactive in vitro kinase assays, reactions were supplemented with 1 μCi γ-^32P ATP. Reactions were incubated at 30°C for 30 min in presence or absence of inhibitor as indicated and samples subjected to polyacrylamide electrophoresis and immunoblot or Coomassie blue staining and signal detected via ECL, infrared detection or autoradiography.
# Supplemental Figure Legends
# (Related to Figure 1). (A) Wild-type (WT) mESCs were analysed for protein copy number by absolute quantitative proteomics. […]
# Data are represented as mean ± S.E.M. (n=3). […] ND = not detected. (B) Inhibition of RNF12 phosphorylation in vitro by SRPK1 and SRPK2 in the presence of varying concentrations of the indicated SRPK inhibitors was determined by immunoblotting for RNF12 phospho-Ser214 (Left). […] Immunoblots were quantified to generate SRPK inhibitor dose-response curves for inhibition of RNF12 phosphorylation by SRPK1 and SRPK2 in vitro (Right). […]
# [3] = test system: RNF12 SR-motif; assay: RNF12 SR-motif phosphorylation in mouse cortical neurons by phos-tag immunoblotting; type: cell-based; conditions: mature mouse cortical neurons cultured for 21 days, 10 μM, 4 h
# Description: Figure 7 The SRPK-RNF12 Signaling Pathway Operates in Neurons (A) Primary cortical neurons isolated from E16.5 C57BL6 mice were cultured for the indicated number of days in vitro (DIV) and RNF12, SRPK1, and SRPK2, synaptophysin and actin levels analyzed via immunoblotting alongside the indicated mESC lines. (B) Cortical neurons were cultured for 21 days and treated with 10 μM MG132 and protein levels analyzed by immunoprecipitation and immunoblotting (REX1) and immunoblotting (RNF12 and ERK1/2). (C) Cortical neurons were cultured in vitro for the indicated number of days (DIV) and RNF12 and MAP2 neuron specific marker analyzed by immunofluorescence. Scale bar: 20 μm. (D) RNF12 SR-motif phosphorylation during in vitro mouse cortical neuron maturation was analyzed via phos-tag immunoblotting for RNF12. […] Synaptophysin and actin levels were determined by immunoblotting. […] Synaptophysin and actin levels were determined by immunoblotting. (F) The SRPK-RNF12-REX1 signaling pathway regulates neural gene expression and is disrupted in intellectual disability disorders. SRPK phosphorylates the RNF12 SR-motif to promote REX1 ubiquitylation and proteasomal degradation, which acts as a “brake” for neural gene expression in self-renewing pluripotent stem cells. In intellectual disability, inactivating mutations in SRPKs or RNF12 lead to REX1 accumulation and aberrant induction of neural genes. […]
smiles,measurement,setting,value
CCc1cc2c(cc1-c1cccc(S(=O)(=O)F)c1)C(C)(C)c1[nH]c3cc(C#N)ccc3c1C2=O [SRPKIN-1],Ser214 phosphorylation of the high-mobility form of RNF12,"[1]; 10 μM, HA-RNF12 immunoprecipitates, phos-tag and phospho-Ser214 multiplex immunoblot",completely dephosphorylated
same,concentration leading to RNF12 SR-motif de-phosphorylation (as low as),[1],1 µM
same,IC50,[2],15.2 nM
same,RNF12 phosphorylation (phos-tag),[3],suppressed RNF12 phosphorylation
